# Values of other authors as cited in patent US20100003319A1, “RALOXIFENE IMMEDIATE RELEASE TABLETS” (GLENMARK GENERICS LTD., priority 2008, published 2010).
compound,measurement,value
"O=C(c1ccc(OCCN2CCCCC2)cc1)c1c(-c2ccc(O)cc2)sc2cc(O)ccc12 [raloxifene, [6-hydroxy-2-(4-hydroxyphenyl)-benzothiophen-3-yl]-[4-[2-(1-piperidyl)ethoxy]phenyl]-methanone]",Solubility in water,very slightly soluble
